Here are results for seven molecules from US20050282743A1, “Molecular interactions in cells” (Arbor Vita Corporation, priority 2001, published 2005).

Like-named read-outs stand apart in the source and are kept apart here. Peptide text beside a SMILES is read from it. * marks the point of attachment. Biotin = O=C1N[C@H]2[C@H](CS[C@H]2CCCCC(=O)*)N1

In this experiment the target is T1, PDZ-domain polypeptide (GST/PDZ fusion protein) (Homo sapiens, UniProt Q5TCQ9).
T1 construct: made in house; host or cells: E. coli (DH5alpha, BL21 or JM109)
T1 sequence (Q5TCQ9 1-1481): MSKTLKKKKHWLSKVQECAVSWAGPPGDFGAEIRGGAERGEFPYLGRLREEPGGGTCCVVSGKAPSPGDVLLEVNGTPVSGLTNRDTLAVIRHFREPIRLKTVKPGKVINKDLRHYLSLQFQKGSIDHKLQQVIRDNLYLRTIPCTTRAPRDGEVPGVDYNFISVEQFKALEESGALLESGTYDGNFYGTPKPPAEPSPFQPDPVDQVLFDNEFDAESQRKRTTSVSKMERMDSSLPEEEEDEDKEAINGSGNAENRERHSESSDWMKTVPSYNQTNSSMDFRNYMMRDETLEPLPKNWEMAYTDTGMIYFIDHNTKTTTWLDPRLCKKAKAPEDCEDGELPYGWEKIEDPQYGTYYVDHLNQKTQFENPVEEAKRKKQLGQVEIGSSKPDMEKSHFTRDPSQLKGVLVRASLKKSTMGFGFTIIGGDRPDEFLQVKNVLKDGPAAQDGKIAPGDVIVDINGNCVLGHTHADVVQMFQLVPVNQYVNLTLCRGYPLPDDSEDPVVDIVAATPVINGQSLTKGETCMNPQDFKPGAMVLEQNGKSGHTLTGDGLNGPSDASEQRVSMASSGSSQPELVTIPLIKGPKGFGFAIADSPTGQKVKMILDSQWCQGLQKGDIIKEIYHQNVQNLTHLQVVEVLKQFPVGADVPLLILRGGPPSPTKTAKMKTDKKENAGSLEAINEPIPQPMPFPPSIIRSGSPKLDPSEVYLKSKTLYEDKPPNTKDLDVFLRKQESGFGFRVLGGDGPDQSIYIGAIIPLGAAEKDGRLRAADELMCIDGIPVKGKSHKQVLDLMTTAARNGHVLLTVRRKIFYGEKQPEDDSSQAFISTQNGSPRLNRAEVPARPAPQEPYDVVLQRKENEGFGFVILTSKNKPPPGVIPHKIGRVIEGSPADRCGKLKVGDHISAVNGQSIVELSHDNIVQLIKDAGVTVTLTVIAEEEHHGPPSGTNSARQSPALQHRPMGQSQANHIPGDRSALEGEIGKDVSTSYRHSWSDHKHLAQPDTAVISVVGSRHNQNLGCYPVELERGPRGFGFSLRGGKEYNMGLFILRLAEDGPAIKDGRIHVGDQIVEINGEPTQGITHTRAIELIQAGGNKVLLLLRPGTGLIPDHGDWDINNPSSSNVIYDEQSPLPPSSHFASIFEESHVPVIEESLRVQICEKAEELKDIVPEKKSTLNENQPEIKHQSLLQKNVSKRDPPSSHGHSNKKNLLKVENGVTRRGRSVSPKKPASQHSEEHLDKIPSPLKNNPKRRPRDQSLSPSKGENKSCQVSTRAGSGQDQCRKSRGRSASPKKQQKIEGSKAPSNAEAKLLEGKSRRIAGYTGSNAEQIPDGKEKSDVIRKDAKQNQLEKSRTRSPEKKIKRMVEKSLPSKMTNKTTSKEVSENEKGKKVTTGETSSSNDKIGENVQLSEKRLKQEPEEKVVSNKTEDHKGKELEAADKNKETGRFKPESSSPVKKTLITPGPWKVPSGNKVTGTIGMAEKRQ
The experiment can be described thus: Apparent affinity (Kd) by titration of PL peptide in the G assay. In kind it is binding. Put shortly: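 A fixed concentration of GST/PDZ fusion protein, 5 ug/ml by default, was mixed in solution with increasing labeled PL peptide (e.g. 0.1 uM-1 mM). Reaction times ranged from 10 minutes to 2 days at 4-37° C. Complexes were separated from free peptide and detected via the label as in the G assay, apparent affinity coming from the saturating concentration.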

Where [1] appears, read: PDZ KIAA1634, PDZ Domain 1, read-out: Peptide Optimal Conc (Kd by titration of the PL peptide).

`CC(C)C[C@H](NC(=O)[C@H](CC(=O)O)NC(=O)[C@H](CO)NC(=O)[C@H](CCC(=O)O)NC(=O)CNC(=O)[C@H](Cc1ccc(O)cc1)NC(=O)[C@H](CC(C)C)NC(=O)[C@H](C)NC(=O)[C@H](CO)NC(=O)[C@H](CO)NC(=O)[C@H](Cc1ccccc1)NC(=O)[C@H](C)NC(=O)[C@H](C)NC(=O)[C@H](Cc1ccc(O)cc1)NC(=O)[C@H](CC(=O)O)NC(=O)[C@H](CC(C)C)NC(=O)[C@H](C)NC(=O)CNC(=O)[C@@H]1CCCN1C(=O)[C@@H](NC(=O)CCCC[C@@H]1SC[C@@H]2NC(=O)N[C@@H]21)C(C)C)C(=O)O` [a-actinin 2] (Biotin-VPGALDYAAFSSALYGESDL-OH; C-terminus assumed): under “PDZ KIAA1634, PDZ Domain 5, read-out: Peptide Optimal Conc (non-zero value: Kd by titration of the PL peptide)”, the Kd came out at 2000 nM.

For the molecule `CC[C@H](C)[C@H](NC(=O)[C@H](CC(=O)O)NC(=O)[C@H](CCC(=O)O)NC(=O)[C@H](CCCNC(=N)N)NC(=O)[C@@H](NC(=O)CCCC[C@@H]1SC[C@@H]2NC(=O)N[C@@H]21)[C@@H](C)O)C(=O)N[C@@H](Cc1ccc(O)cc1)C(=O)N[C@H](C(=O)N[C@@H](CC(N)=O)C(=O)N[C@@H](Cc1ccc(O)cc1)C(=O)N1CCC[C@H]1C(=O)N[C@H](C(=O)N[C@@H](Cc1ccccc1)C(=O)N[C@@H](CO)C(=O)N[C@@H](CCCNC(=N)N)C(=O)N[C@@H](CCCNC(=N)N)C(=O)N1CCC[C@H]1C(=O)N[C@@H](CCCCN)C(=O)N[C@H](C(=O)N[C@@H](CCCNC(=N)N)C(=O)N[C@H](C(=O)O)C(C)C)[C@@H](C)O)[C@@H](C)O)C(C)C` [DNAM-1] (Biotin-TREDIYVNYPTFSRRPKTRV-OH; C-terminus assumed), the Kd (Peptide Optimal Conc (Kd by titration of the PL peptide), PDZ KIAA1634, PDZ Domain 1) turned out to be 1000 nM.

Consider `CC[C@H](C)[C@H](NC(=O)[C@H](Cc1c[nH]cn1)NC(=O)[C@H](C)NC(=O)[C@H](C)NC(=O)[C@H](CO)NC(=O)[C@@H]1CCCN1C(=O)[C@H](CCCNC(=N)N)NC(=O)[C@H](CC(=O)O)NC(=O)[C@H](CCCCN)NC(=O)[C@@H]1CCCN1C(=O)[C@H](CC(=O)O)NC(=O)[C@H](CCC(=O)O)NC(=O)CCCC[C@@H]1SC[C@@H]2NC(=O)N[C@@H]21)C(=O)N[C@H](C(=O)N[C@@H](CCC(=O)O)C(=O)N[C@@H](C)C(=O)N[C@@H](CC(C)C)C(=O)N[C@@H](CCC(=O)O)C(=O)N[C@H](C(=O)N[C@@H](CC(=O)O)C(=O)N[C@H](C(=O)O)C(C)C)[C@@H](C)O)C(C)C` [PDZ-binding kinase (PBK)] (Biotin-EDPKDRPSAAHIVEALETDV-OH; C-terminus assumed), for which the Kd (PDZ KIAA1634, PDZ Domain 2, read-out: Peptide Optimal Conc (non-zero value: Kd by titration of the PL peptide)) stood at 7000 nM.

With `CC(C)C[C@H](NC(=O)[C@H](Cc1c[nH]c2ccccc12)NC(=O)[C@H](Cc1c[nH]cn1)NC(=O)[C@H](CCCNC(=N)N)NC(=O)[C@H](CC(C)C)NC(=O)[C@@H](NC(=O)[C@H](Cc1ccccc1)NC(=O)[C@H](CCC(N)=O)NC(=O)[C@H](CCCNC(=N)N)NC(=O)[C@@H](NC(=O)[C@H](CCC(=O)O)NC(=O)CNC(=O)[C@H](CCCNC(=N)N)NC(=O)[C@H](CC(=O)O)NC(=O)[C@@H](NC(=O)[C@H](CC(C)C)NC(=O)[C@H](CCC(=O)O)NC(=O)[C@H](CCCNC(=N)N)NC(=O)CCCC[C@@H]1SC[C@@H]2NC(=O)N[C@@H]21)C(C)C)C(C)C)[C@@H](C)O)C(=O)N[C@@H](CCCCN)C(=O)N[C@H](C(=O)O)C(C)C` [Dopamine transporter (Na+-dependent)] (Biotin-RELVDRGEVRQFTLRHWLKV-OH; C-terminus assumed), the Kd under setting [1] came to 900 nM.

In the case of `CC[C@H](C)[C@H](NC(=O)[C@H](CCCCN)NC(=O)[C@@H](NC(=O)[C@H](CO)NC(=O)[C@@H]1CCCN1C(=O)[C@H](Cc1ccccc1)NC(=O)[C@@H](NC(=O)[C@@H](NC(=O)[C@H](CCCNC(=N)N)NC(=O)[C@H](CCC(=O)O)NC(=O)[C@H](CC(C)C)NC(=O)[C@H](CC(C)C)NC(=O)[C@H](CC(C)C)NC(=O)[C@@H](NC(=O)CNC(=O)[C@@H](NC(=O)CCCC[C@@H]1SC[C@@H]2NC(=O)N[C@@H]21)C(C)C)[C@@H](C)O)C(C)C)[C@@H](C)CC)C(C)C)C(=O)N[C@@H](C)C(=O)N[C@H](C(=O)N[C@@H](CC(C)C)C(=O)N[C@H](C(=O)O)C(C)C)[C@@H](C)O` [Adenovirus E4 Type9], the Kd (PDZ KIAA1634, PDZ Domain 2, Protein Optimal Conc 5, read-out: Peptide Optimal Conc (Kd by titration of the PL peptide)) stood at 150 nM and the Kd (PDZ KIAA1634, PDZ Domain 4, Protein Optimal Conc 5, read-out: Peptide Optimal Conc (Kd by titration of the PL peptide)) came out at 200 nM.

For `CC[C@H](C)[C@H](NC(=O)[C@H](CO)NC(=O)[C@@H](NC(=O)[C@H](Cc1ccccc1)NC(=O)[C@H](CO)NC(=O)CCCC[C@@H]1SC[C@@H]2NC(=O)N[C@@H]21)[C@@H](C)O)C(=O)N[C@@H](CC(C)C)C(=O)N[C@H](C(=O)N[C@@H](CS)C(=O)N[C@@H](Cc1c[nH]cn1)C(=O)N[C@@H](CCC(N)=O)C(=O)N[C@@H](CCCNC(=N)N)C(=O)N[C@@H](CCCNC(=N)N)C(=O)N[C@H](C(=O)N[C@@H](CCC(N)=O)C(=O)N[C@@H](CCCNC(=N)N)C(=O)N[C@@H](CCCCN)C(=O)N[C@@H](CCC(=O)O)C(=O)N[C@H](C(=O)N[C@H](C(=O)N[C@@H](C)C(=O)O)C(C)C)[C@@H](C)O)[C@@H](C)O)[C@@H](C)O` [GluR5-2 (rat)], where the note is “PDZ KIAA1634, PDZ Domain 1, titration of the PL peptide, read-out: Peptide Optimal Conc (Kd, dissociation constant)”, the Kd turned out to be 150 nM.

As for `CC(C)C[C@H](NC(=O)CNC(=O)[C@@H](NC(=O)[C@H](CO)NC(=O)[C@H](CC(N)=O)NC(=O)[C@H](Cc1ccccc1)NC(=O)CNC(=O)[C@H](C)NC(=O)[C@H](C)NC(=O)[C@H](Cc1ccccc1)NC(=O)[C@@H](NC(=O)CCCC[C@@H]1SC[C@@H]2NC(=O)N[C@@H]21)[C@@H](C)O)[C@@H](C)O)C(=O)N1CCC[C@H]1C(=O)N[C@@H](Cc1c[nH]cn1)C(=O)N[C@@H](CO)C(=O)N[C@H](C(=O)N[C@H](C(=O)N[C@@H](CCCNC(=N)N)C(=O)N[C@H](C(=O)O)C(C)C)[C@@H](C)O)[C@@H](C)O` [Neuroligin] (Biotin-TFAAGFNSTGLPHSTTRV-OH; C-terminus assumed), the Kd under setting [1] amounted to 100 nM.
